The target in this experiment is T1, BTK (Homo sapiens, UniProt Q06187).
T1 construct: The GM01501.3 cell line endogenously expresses BTK with a HiBiT fusion tag via CRISPR knock-in at its C-terminal region; endogenous in cells; host or cells: GM01501.3 (GM01501 cells engineered by CRISPR knock-in of HiBiT at the BTK locus)
In words: BTK degradation assay using the HiBiT Method (Nano-Glo HiBiT Lytic Assay, GM01501.3 cells). In kind it is cell-based. The following applies: HiBiT Degradation on GM01501.3 BTK @ 6 hours. A digest of the protocol: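 CRISPR knock-in GM01501.3 cells expressing endogenous BTK with C-terminal HiBiT tag, treated 6 h at 37 °C with compounds, 11-point half-log titration from 10 μM top, duplicates. Remaining BTK quantified by Nano-Glo HiBiT lytic luminescence versus DMSO controls; DC50 reported.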

In general, DC50 refers to the concentration giving 50% degradation.

T1 sequence (Q06187 whole entry, the tested form may be a part): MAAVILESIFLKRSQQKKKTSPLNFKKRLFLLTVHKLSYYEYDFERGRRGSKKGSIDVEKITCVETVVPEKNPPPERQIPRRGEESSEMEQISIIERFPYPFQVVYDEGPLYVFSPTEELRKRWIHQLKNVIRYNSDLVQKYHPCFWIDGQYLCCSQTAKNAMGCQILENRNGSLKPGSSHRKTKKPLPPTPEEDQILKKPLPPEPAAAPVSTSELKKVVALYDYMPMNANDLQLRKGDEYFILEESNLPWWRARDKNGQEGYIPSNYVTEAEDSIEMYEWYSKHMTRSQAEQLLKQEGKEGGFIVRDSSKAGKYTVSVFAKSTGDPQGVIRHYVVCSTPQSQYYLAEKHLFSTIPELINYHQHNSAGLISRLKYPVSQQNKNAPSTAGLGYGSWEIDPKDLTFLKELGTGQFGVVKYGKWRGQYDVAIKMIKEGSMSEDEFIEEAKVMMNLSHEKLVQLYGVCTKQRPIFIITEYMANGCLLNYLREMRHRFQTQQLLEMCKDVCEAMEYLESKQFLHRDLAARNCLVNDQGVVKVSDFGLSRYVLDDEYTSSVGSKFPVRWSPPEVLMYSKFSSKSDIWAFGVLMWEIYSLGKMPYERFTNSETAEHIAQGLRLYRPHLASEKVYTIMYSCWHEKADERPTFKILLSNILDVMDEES

Take `Cc1cc(-c2ncnn3cc(-c4ccc(OCCCCCCCCN5CCC(c6ccc(NC7CCC(=O)NC7=O)cc6)CC5)cc4)cc23)ccc1CNC(=O)c1noc(C(C)(C)C)n1` (centres unmarked) [Example 115, -tert-butyl-N-[[4-[6-[4-[8-[4-[4-[(2,6-dioxo-3-piperidyl)amino]phenyl]-1-piperidyl]octoxy]phenyl]pyrrolo[2,1-f][1,2,4]triazin-4-yl]-2-methyl-phenyl]methyl]-1,2,4-oxadiazole-3-carboxamide]: the 50% degradation concentration (DC50) is under 100 nM.

Take `CC(C)(C)c1nc(C(=O)NCc2ccc(-c3ncnn4cc(-c5ccc(CN6CCc7ccc(OC8CCC(=O)NC8=O)cc7C6)cn5)cc34)cc2F)no1` (centres unmarked) [Example 226]: the DC50 was under 100 nM.

Molecule `Cc1cc(-c2ncnn3cc(-c4ccc(OCCCCN5CCC(c6ccc(NC7CCC(=O)NC7=O)cc6)CC5)cc4)cc23)ccc1CNC(=O)c1noc(C(C)(C)C)n1` (centres unmarked) [Example 113, -tert-butyl-N-[[4-[6-[4-[4-[4-[4-[(2,6-dioxo-3-piperidyl)amino]phenyl]-1-piperidyl]butoxy]phenyl]pyrrolo[2,1-f][1,2,4]triazin-4-yl]-2-methyl-phenyl]methyl]-1,2,4-oxadiazole-3-carboxamide] displayed a DC50 of under 100 nM.

In the case of `Cc1cc(-c2ncnn3cc(-c4ccc(CN5CCC(c6ncc(NC7CCC(=O)NC7=O)cn6)CC5)cc4)cc23)ccc1CNC(=O)c1noc(C(C)(C)C)n1` (centres unmarked) [Example 14, 5-tert-butyl-N-[[4-[6-[4-[[4-[5-[(2,6-dioxo-3-piperidyl)amino]pyrimidin-2-yl]-1-piperidyl]methyl]phenyl]pyrrolo [2,1-f][1,2,4]triazin-4-yl]-2-methyl-phenyl]methyl]-1,2,4-oxadiazole-3-carboxamide], the DC50 is under 100 nM.

For the molecule `Cc1cc(-c2ncnn3cc(-c4ccc(CN5CCC(c6ccc(NC7CCC(=O)NC7=O)cc6)CC5)cn4)cc23)ccc1CNC(=O)c1noc(C(C)(C)C)n1` (centres unmarked) [Example 241, 5-(tert-butyl)-N-(4-(6-(5-((4-(4-((2,6-dioxopiperidin-3-yl)amino)phenyl)piperidin-1-yl)methyl)pyridin-2-yl)pyrrolo[2,1-f][1,2,4]triazin-4-yl)-2-methylbenzyl)-1,2,4-oxadiazole-3-carboxamide], the 50% degradation concentration (DC50) is under 100 nM.

On to `Cc1cc(-c2ncnn3cc(-c4cccc(CCN5CCC(c6ccc(NC7CCC(=O)NC7=O)cc6)CC5)c4)cc23)ccc1CNC(=O)c1noc(C(C)(C)C)n1` (centres unmarked) [Example 54, 5-tert-butyl-N-[[4-[6-[3-[2-[4-[4-[(2,6-dioxo-3-piperidyl)amino]phenyl]-1-piperidyl]ethyl]phenyl]pyrrolo[2,1-f][1,2,4]triazin-4-yl]-2-methyl-phenyl]methyl]-1,2,4-oxadiazole-3-carboxamide], for which the DC50 was under 100 nM.

The molecule `CC(C)(C)c1nc(C(=O)NCc2ccc(-c3ncnn4cc(CCN5CCC(c6ccc(C7(C)CCC(=O)NC7=O)cc6)CC5)cc34)cc2F)no1` (centres unmarked) [Example 121, 5-tert-butyl-N-[[2-fluoro-4-[6-[2-[4-[4-(3-methyl-2,6-dioxo-3-piperidyl)phenyl]-1-piperidyl]ethyl]pyrrolo[2,1-f][1,2,4]triazin-4-yl]phenyl]methyl]-1,2,4-oxadiazole-3-carboxamide] displayed a half-maximal degradation concentration (DC50) of 100 to 500 nM.

`Cc1cc(-c2ncnn3cc(CCN4CCC(c5ccc6c(N7CCC(=O)NC7=O)nn(C)c6c5)C(F)(F)C4)cc23)ccc1CNC(=O)c1noc(C(C)(C)C)n1` (centres unmarked) [Example 253, 5-(tert-butyl)-N-(4-(6-(2-(4-(3-(2,4-dioxotetrahydropyrimidin-1(2H)-yl)-1-methyl-1H-indazol-6-yl)-3,3-difluoropiperidin-1-yl)ethyl)pyrrolo[2,1-f][1,2,4]triazin-4-yl)-2-methylbenzyl)-1,2,4-oxadiazole-3-carboxamide]: the DC50 is under 100 nM.

`Cc1cc(-c2ncnn3cc(CCN4CCC(c5ccc(NC6CCC(=O)NC6=O)nc5)CC4)cc23)ccc1CNC(=O)c1noc(C(C)(C)C)n1` (centres unmarked) [Example 250, 5-(tert-butyl)-N-(4-(6-(2-(4-(6-((2,6-dioxopiperidin-3-yl)amino)pyridin-3-yl)piperidin-1-yl)ethyl)pyrrolo[2,1-f] [1,2,4]triazin-4-yl)-2-methylbenzyl)-1,2,4-oxadiazole-3-carboxamide] gave a DC50 of under 100 nM.

On to `Cc1cc(-c2ncnn3cc(CCN4CCC(c5ccc6c(C7CCC(=O)NC7=O)nn(C)c6c5)CC4)cc23)ccc1CNC(=O)c1noc(C(C)(C)C)n1` (centres unmarked) [Example 255, 5-(tert-butyl)-N-(4-(6-(2-(4-(3-(2,6-dioxopiperidin-3-yl)-1-methyl-1H-indazol-6-yl)piperidin-1-yl)ethyl)pyrrolo[2,1-f][1,2,4]triazin-4-yl)-2-methylbenzyl)-1,2,4-oxadiazole-3-carboxamide], for which the DC50 is under 100 nM.

The molecule `CC(C)(C)c1nc(C(=O)NCc2ccc(-c3ncnn4cc(CCCCN5CCC(c6ccc(C7(C)CCC(=O)NC7=O)cc6)CC5)cc34)cc2F)no1` (single isomer, unassigned) [Example 141, 5-tert-butyl-N-[[2-fluoro-4-[6-[4-[4-[4-(3-methyl-2,6-dioxo-3-piperidyl)phenyl]-1-piperidyl]butyl]pyrrolo[2,1-f][1,2,4]triazin-4-yl]phenyl]methyl]-1,2,4-oxadiazole-3-carboxamide] had a DC50 of under 100 nM.

In turn, `Cn1nc(N2CCC(=O)NC2=O)c2ccc(C3CCN(CCCOc4cc5c(-c6ccc7c(c6)OCCCC7NC(=O)c6noc(C(C)(C)C)n6)ncnn5c4)CC3)cc21` (centres unmarked) [Example 294, 5-(tert-butyl)-N-(8-(6-(3-(4-(3-(2,4-dioxotetrahydropyrimidin-1(2H)-yl)-1-methyl-1H-indazol-6-yl)piperidin-1-yl)propoxy)pyrrolo[2,1-f] [1,2,4]triazin-4-yl)-2,3,4,5-tetrahydrobenzo[b]oxepin-5-yl)-1,2,4-oxadiazole-3-carboxamide] yielded a DC50 of under 100 nM.

For `Cc1cc(-c2ncnn3cc(-c4ccc5c(c4)CCN(CCCc4ccc(NC6CCC(=O)NC6=O)cc4)C5)cc23)ccc1CNC(=O)c1noc(C(C)(C)C)n1` (centres unmarked) [Example 58, 5-tert-butyl-N-[[4-[6-[2-[3-[4-[(2,6-dioxo-3-piperidyl)amino]phenyl]propyl]-3,4-dihydro-1H-isoquinolin-6-yl]pyrrolo[2,1-f][1,2,4]triazin-4-yl]-2-methyl-phenyl]methyl]-1,2,4-oxadiazole-3-carboxamide], the DC50 is under 100 nM.

Take `Cc1cc(-c2ncnn3cc(-c4nccc(CN5CCC(c6ccc(C7CCC(=O)NC7=O)cc6)CC5)n4)cc23)ccc1CNC(=O)c1noc(C(C)(C)C)n1` (centres unmarked) [Example 215, 5-(tert-butyl)-N-(4-(6-(4-((4-(4-(2,6-dioxopiperidin-3-yl)phenyl)piperidin-1-yl)methyl)pyrimidin-2-yl)pyrrolo [2,1-f][1,2,4]triazin-4-yl)-2-methylbenzyl)-1,2,4-oxadiazole-3-carboxamide]: the DC50 was under 100 nM.

Molecule `Cc1cc(-c2ncnn3cc(-c4ncc(CN5CCC(c6ccc(C7CCC(=O)NC7=O)cc6)CC5)cc4C)cc23)ccc1CNC(=O)c1noc(C(C)(C)C)n1` (centres unmarked) [Example 213, 5-(tert-butyl)-N-(4-(6-(5-((4-(4-(2,6-dioxopiperidin-3-yl)phenyl)piperidin-1-yl)methyl)-3-methylpyridin-2-yl)pyrrolo[2,1-f][1,2,4]triazin-4-yl)-2-methylbenzyl)-1,2,4-oxadiazole-3-carboxamide] showed a DC50 of under 100 nM.

In the case of `Cc1cc(-c2ncnn3cc(CCN4CCC(c5ccc(C6CCC(=O)NC6=O)cc5)CC4)cc23)ccc1CNC(=O)c1noc(C(C)(C)C)n1` (centres unmarked) [Example 116, 5-tert-butyl-N-[[4-[6-[2-[4-[4-(2,6-dioxo-3-piperidyl)phenyl]-1-piperidyl]ethyl]pyrrolo[2,1-f][1,2,4]triazin-4-yl]-2-methyl-phenyl]methyl]-1,2,4-oxadiazole-3-carboxamide], the DC50 was under 100 nM.

Molecule `CC1c2cc(OC3CCC(=O)NC3=O)ccc2CCN1Cc1ccc(-c2cc3c(-c4ccc(CNC(=O)c5noc(C(C)(C)C)n5)c(F)c4)ncnn3c2)nc1` (centres unmarked) [Example 232, 5-(tert-butyl)-N-(4-(6-(5-((7-((2,6-dioxopiperidin-3-yl)oxy)-1-methyl-3,4-dihydroisoquinolin-2(1H)-yl)methyl)pyridin-2-yl)pyrrolo[2,1-f][1,2,4]triazin-4-yl)-2-fluorobenzyl)-1,2,4-oxadiazole-3-carboxamide] displayed a DC50 of 100 to 500 nM.

For `CC(C)(C)c1nc(C(=O)NCc2ccc(-c3ncnn4cc(-c5ccc(CN6CCc7ccc(OC8CCC(=O)NC8=O)cc7CC6)cn5)cc34)cc2F)no1` (centres unmarked) [Example 230, 5-(tert-butyl)-N-(4-(6-(5-((7-((2,6-dioxopiperidin-3-yl)oxy)-1,2,4,5-tetrahydro-3H-benzo[d]azepin-3-yl)methyl)pyridin-2-yl)pyrrolo [2,1-f][1,2,4]triazin-4-yl)-2-fluorobenzyl)-1,2,4-oxadiazole-3-carboxamide], the DC50 was under 100 nM.

For `Cc1cc(-c2ncnn3cc(-c4ccc(CN5CCC(c6ccc(NC7CCC(=O)NC7=O)cc6)CC5)cc4)cc23)ccc1CNC(=O)N1CC(OC(C)(C)C)C1` (centres unmarked) [Example 97, 3-tert-butoxy-N-[[4-[6-[4-[[4-[4-[(2,6-dioxo-3-piperidyl)amino]phenyl]-1-piperidyl]methyl]phenyl]pyrrolo[2,1-f][1,2,4]triazin-4-yl]-2-methyl-phenyl]methyl]azetidine-1-carboxamide], the DC50 was under 100 nM.

Molecule `Cc1cc(-c2ncnn3cc(-c4ccc(CCN5CCC(c6ccc(NC7CCC(=O)NC7=O)cc6)CC5)cc4)cc23)ccc1CNC(=O)c1noc(C(C)(C)C)n1` (centres unmarked) [Example 53, 5-tert-butyl-N-[[4-[6-[4-[2-[4-[4-[(2,6-dioxo-3-piperidyl)amino]phenyl]-1-piperidyl]ethyl]phenyl]pyrrolo[2,1-f][1,2,4]triazin-4-yl]-2-methyl-phenyl]methyl]-1,2,4-oxadiazole-3-carboxamide] gave a half-maximal degradation concentration (DC50) of under 100 nM.
